These results are taken from ChEMBL document CHEMBL1697781, “Assessment of the health effects of chemicals in humans: II. Construction of an adverse effects database for QSAR modeling” (Curr Drug Discov Technol, 2004).

A value given as a limit tells only on which side of the number the result lay.

Conditions in all cases: human; call rule not given here
The subject of series [1] is Hepatotoxicity. The experiment in a line: FDA HLAED, lactate dehydrogenase (LDH) increase.
Series [2] deals with Hepatotoxicity. The experiment in a line: FDA HLAED, gamma-glutamyl transferase (GGT) increase.
Series [3] concerns Hepatotoxicity. The experiment in a line: FDA HLAED, serum glutamic oxaloacetic transaminase (SGOT) increase.
The test system of series [4] is Hepatotoxicity. The experiment in a line: FDA HLAED, alkaline phosphatase increase.
For series [5], the system named is Hepatotoxicity. The experiment in a line: FDA HLAED, serum glutamic pyruvic transaminase (SGPT) increase.
The subject of series [6] is Hepatotoxicity. The experiment in a line: FDA HLAED, liver enzyme composite activity.
Wherever GGT Increase - Index Value is given: reference of the scale not given here.
Wherever LDH Increase - Index Value is given: reference of the scale not given here.

Regarding `CCOC(=O)[C@H](CCc1ccccc1)N[C@@H](C)C(=O)N1[C@H](C(=O)O)C[C@@H]2CCC[C@@H]21`, in the series on Hepatotoxicity [1], the “LDH Increase - Activity Score” value is “Inactive”, the “LDH Increase - Index Value” turned out to be 0.5 and the “LDH Increase - Number of Reports” value is below 4. In the series on Hepatotoxicity [2], the “GGT Increase - Activity Score” value is “Inactive”, the “GGT Increase - Index Value” was 1.4 and the “GGT Increase - Number of Reports” value is reported as “>= 4”. Also, in the series on Hepatotoxicity [3], the “SGOT Increase - Activity Score” value is “Inactive”, the “SGOT Increase - Index Value” came out at 0.8 and the “SGOT Increase - Number of Reports” value is reported as below 4. Also, in the series with Hepatotoxicity [4], the “Alkaline Phosphatase Increase - Activity Score” value was “Inactive”, the “Alkaline Phosphatase Increase - Index Value” came to 1.1 and the “Alkaline Phosphatase Increase - Number of Reports” value was “>= 4”. Also, in the series on Hepatotoxicity [5], the “SGPT Increase - Activity Score” value was “Inactive”, the “SGPT Increase - Index Value” is recorded as 0.5 and the “SGPT Increase - Number of Reports” value is reported as below 4. Further, in the series on Hepatotoxicity [6], the “Composite Activity - Active” value is 0, the “Composite Activity - Marginal” value is listed as 0 and the “Composite Activity - Score” value is on record as “Inactive”.
On to `O=C(O)[C@@H](S)[C@@H](S)C(=O)O`, for which, in the series with Hepatotoxicity [1], the “LDH Increase - Activity Score” value is on record as “Inactive”, the “LDH Increase - Index Value” is on record as 43.9 and the “LDH Increase - Number of Reports” value is reported as below 4. Moreover, in the series on Hepatotoxicity [2], the “GGT Increase - Activity Score” value is “Active”, the “GGT Increase - Index Value” is on record as 87.7 and the “GGT Increase - Number of Reports” value is below 4. Also, in the series on Hepatotoxicity [3], the “SGOT Increase - Activity Score” value is on record as “Active”, the “SGOT Increase - Index Value” is given as 175.4 and the “SGOT Increase - Number of Reports” value was “>= 4”. Besides, in the series with Hepatotoxicity [4], the “Alkaline Phosphatase Increase - Activity Score” value is on record as “Active”, the “Alkaline Phosphatase Increase - Index Value” was found to be 175.4 and the “Alkaline Phosphatase Increase - Number of Reports” value is on record as “>= 4”. For the same molecule, in the series on Hepatotoxicity [5], the “SGPT Increase - Activity Score” value is “Active”, the “SGPT Increase - Index Value” is 131.6 and the “SGPT Increase - Number of Reports” value was below 4. In the series on Hepatotoxicity [6], the “Composite Activity - Active” value is on record as 4, the “Composite Activity - Marginal” value is recorded as 0 and the “Composite Activity - Score” value is “Active”.
Turning to `CNS(=O)(=O)Cc1ccc2[nH]cc(CCN(C)C)c2c1`, in the series on Hepatotoxicity [1], the “LDH Increase - Activity Score” value is “Inactive”, the “LDH Increase - Index Value” is on record as 0.1 and the “LDH Increase - Number of Reports” value is listed as “>= 4”. Moreover, in the series on Hepatotoxicity [2], the “GGT Increase - Activity Score” value was “Inactive”, the “GGT Increase - Index Value” came out at 0.1 and the “GGT Increase - Number of Reports” value is given as below 4. For the same molecule, in the series on Hepatotoxicity [3], the “SGOT Increase - Activity Score” value was “Inactive”, the “SGOT Increase - Index Value” is on record as 0.3 and the “SGOT Increase - Number of Reports” value was “>= 4”. For the same molecule, in the series on Hepatotoxicity [4], the “Alkaline Phosphatase Increase - Activity Score” value is on record as “Inactive”, the “Alkaline Phosphatase Increase - Index Value” was found to be 0.1 and the “Alkaline Phosphatase Increase - Number of Reports” value is “>= 4”. Further, in the series with Hepatotoxicity [5], the “SGPT Increase - Activity Score” value is “Inactive”, the “SGPT Increase - Index Value” turned out to be 0.3 and the “SGPT Increase - Number of Reports” value was “>= 4”. In the series with Hepatotoxicity [6], the “Composite Activity - Active” value was determined as 0, the “Composite Activity - Marginal” value is reported as 0 and the “Composite Activity - Score” value is recorded as “Inactive”.
Regarding `CC1=C(CC(=O)O)c2cc(F)ccc2/C1=C\c1ccc([S+](C)[O-])cc1` (configuration not stated), in the series with Hepatotoxicity [1], the “LDH Increase - Activity Score” value was “Inactive”, the “LDH Increase - Index Value” amounted to 0 and the “LDH Increase - Number of Reports” value is below 4. In addition, in the series with Hepatotoxicity [2], the “GGT Increase - Activity Score” value was “Inactive”, the “GGT Increase - Index Value” is 0 and the “GGT Increase - Number of Reports” value is below 4. In the series with Hepatotoxicity [3], the “SGOT Increase - Activity Score” value was “Inactive”, the “SGOT Increase - Index Value” is 0 and the “SGOT Increase - Number of Reports” value is below 4. Moreover, in the series with Hepatotoxicity [4], the “Alkaline Phosphatase Increase - Activity Score” value was “Inactive”, the “Alkaline Phosphatase Increase - Index Value” is 0 and the “Alkaline Phosphatase Increase - Number of Reports” value was below 4. In the series on Hepatotoxicity [5], the “SGPT Increase - Activity Score” value is “Inactive”, the “SGPT Increase - Index Value” stood at 0 and the “SGPT Increase - Number of Reports” value is given as below 4. In the series with Hepatotoxicity [6], the “Composite Activity - Active” value amounted to 0, the “Composite Activity - Marginal” value is 0 and the “Composite Activity - Score” value was “Inactive”.
